Consider 20 compounds from publication PMC4552634, “A New Set of Chemical Starting Points with Plasmodium falciparum Transmission-Blocking Potential for Antimalarial Drug Discovery” (PLoS ONE, 2015).

Data set [1] relates to luciferase reaction (BacTiter-Glo). Put plainly: Interference assay (inhibition of the BacTiter-Glo luciferase reaction). In kind it is biochemical. More on the design: concentration or dose not given beside the values. To be noted: ATP interference assay. Here is the method: To discard possible false-positive results, we performed an interference assay in parallel. […] […]. The ATP solution was made by dissolving ATP powder (ATP standard from the ATPlite 1 step assay kit, reference 6016731, Perkin Elmer) in culture medium. The positive control used was the Luciferase Inhibitor I Calbiochem (Merck, 119113) at 100 μM.

Data set [2] concerns P. falciparum asexual stages. The settings on record: TCAMS data, cited from earlier work.
In data set [3] the test system is P. falciparum stage V gametocytes. Briefly: Gametocytocidal ATP bioluminescence assay (single point 5 μM and 1 μM, dose-response). Format: cell-based, Plasmodium falciparum. The settings on record: for Ratio IC50 HepG2/IC50 P. falciparum: IC50 HepG2 divided by IC50 P. falciparum gametocytes.
Protocol: Purified stage IV-V gametocytes were obtained as previously described [10]. Single point ATP bioluminescence assay and dose–response of positive hits was determined in accordance with the previously published protocol [10].
Another data set relates to HepG2 cells. Briefly: Cytotoxicity in HepG2 cells (intracellular ATP, ATPlite, 48 h). To be noted: IC50 HepG2 divided by IC50 P. falciparum gametocytes. In kind it is cell-based, human. On the technique in general: ATP-based viability assays read luminescence as a measure of living cells.
Experiment in data set [4]: as above
Protocol: Cells were grown and maintained in EMEM (Sigma-Aldrich) supplemented with 2mM L-glutamine (Sigma-Aldrich) and 10% fetal calf serum (Perbio). […] Passages were routinely made upon reaching 80–90% confluence. For cytotoxicity experiments, cells were seeded onto 96-well clear bottom black plates coated with type I collagen (Biocoat, Becton Dickinson) at a cell density of 20,000 cells/well.
To determine cytotoxic effects, represented by the Tox50 value (the concentration of drug that reduces cell viability by 50%), cells were exposed to serial dilutions of compounds for 48 h at 37°C. The assay medium was as previously described, but supplemented with 5% fetal calf serum instead of 10%. […] In the presence of ATP, luminescence is emitted as the reaction described earlier for the BacTiter-Glo kit. Percentages of inhibition were calculated relative to vehicle control wells.
The settings on record: human, HepG2 cells; IC50 per ratio column head; unit inferred; read-out: Cytotoxicity in HepG2. In kind it is cell-based, human.

Setting [5] is: P. falciparum asexual stages, read-out: IC50 (µM) Pf asexual stages.
Where [6] appears, read: asexual stages, read-out: IC50 asexual.
Setting [7] is: Plasmodium falciparum, P. falciparum gametocytes, average, read-out: IC50 Pf Gametocytes average, IC50 (µM) average.
The mark [8] stands for this setting: Plasmodium falciparum, sexual stages (gametocytes), dose-response, read-out: IC50 sexual.
Where [9] appears, read: sexual stages (gametocytes), dose-response, read-out: IC50 sexual.

Read-outs that look alike come from different tables or passages of the source. Where only a bound is given, the exact number is not on record here.

For `Cn1nc(C(F)(F)F)c(-c2ccc(Br)cc2)c1NC(=O)Cc1ccccc1F` [TCMDC-123792], the “% Control luminiscence” value in data set [1] amounted to 100%. For the same compound, the IC50 in data set [2] (setting [5]) is 0.16 µM; in data set [2] (setting [6]), 0.157 µM; in data set [3] (setting [7]), 1.79 µM; in data set [3] (setting [8]), 1.79 µM. For the same compound, the “Ratio IC50 HepG2/IC50 P. falciparum” value (in data set [3]; with HepG2 cells) was over 14 throughout. Also, in data set [4], the IC50 at 48 h was over 25 µM.
As for `COc1cc2nc(N3CCN(c4nc(N)c5cc(OC)c(OC)cc5n4)CC3)nc(N)c2cc1OC` [TCMDC-123865], the “% Control luminiscence” value in data set [1] worked out at 100%. For the same compound, the values for the IC50 in data set [2] (setting [5]), in data set [2] (setting [6]) and in data set [3] (setting [7]) were 0.15 µM, 0.146 µM and 0.26 µM, respectively. Besides, the “Ratio IC50 HepG2/IC50 P. falciparum” value (in data set [3]; with HepG2 cells) was over 96 throughout. Further, in data set [4], the IC50 at 48 h is over 25 µM.
For `C=CCN(C(=O)c1ccc(Cl)c([N+](=O)[O-])c1)c1nc(-c2ccccc2)cs1` [TCMDC-124436], in data set [1], the “% Control luminiscence” value came out at 100%. Further, the IC50 was 0.4 µM in data set [2] (setting [5]), 0.398 µM in data set [2] (setting [6]), 0.11 µM in data set [3] (setting [7]) and 0.105 µM in data set [3] (setting [8]). In addition, the “Ratio IC50 HepG2/IC50 P. falciparum” value (in data set [3]; in the data set on HepG2 cells) was over 237 each time. For the same compound, the IC50 at 48 h in data set [4] is over 25 µM.
In the case of `Fc1ccc2[nH]c(-c3ccc(-c4ccc(CN5CCC(CCN6CCCCC6)CC5)cc4)cc3)nc2c1` [TCMDC-133924], the “% Control luminiscence” value in data set [1] was found to be 100%. Besides, the IC50 in data set [2] (setting [6]) is 0.129 µM; in data set [3] (setting [7]) it was 0.46 µM. Besides, the “Ratio IC50 HepG2/IC50 P. falciparum” value in data set [3] turned out to be 12. Further, the IC50 at 48 h in data set [4] was found to be 5.3 µM.
Turning to `Cc1cccc2nc(-c3ccc(-c4ccc(CN5CCC(CCN6CCCCC6)CC5)cc4)cc3)[nH]c12` [TCMDC-133929], the “% Control luminiscence” value in data set [1] is 100%. Moreover, the IC50 in data set [2] (setting [6]) was 0.144 µM; in data set [3] (setting [7]) it was 0.27 µM; in data set [3] (setting [9]) it was 0.267 µM. Moreover, the “Ratio IC50 HepG2/IC50 P. falciparum” value in data set [3] turned out to be 14. The IC50 at 48 h in data set [4] was found to be 3.7 µM.
For the compound `Fc1ccc2[nH]c(-c3ccc(-c4ccc(CN5CCC(CCN6CCCCC6)CC5)cc4)s3)nc2c1` [TCMDC-133932], in data set [1], the “% Control luminiscence” value came to 100%. Further, the IC50 in data set [2] (setting [6]) is 0.142 µM; in data set [3] (setting [7]), 0.14 µM. Further, the “Ratio IC50 HepG2/IC50 P. falciparum” value in data set [3] is listed as 27. The IC50 at 48 h in data set [4] came out at 3.79 µM.
Regarding `Fc1ccc2[nH]c(-c3cccc(-c4ccc(CN5CCC(CCN6CCCCC6)CC5)cc4)c3)nc2c1` [TCMDC-133940], the “% Control luminiscence” value in data set [1] came to 100%. Further, the IC50 was 0.142 µM in data set [2] (setting [6]), 0.43 µM in data set [3] (setting [7]) and 0.433 µM in data set [3] (setting [9]). Besides, the “Ratio IC50 HepG2/IC50 P. falciparum” value in data set [3] worked out at 12. In data set [4], the IC50 at 48 h was 5.2 µM.
Turning to `FC(F)(F)c1ccc2[nH]c(-c3ccc(-c4cccc(CN5CCC(CCN6CCCCC6)CC5)c4)cc3)nc2c1` [TCMDC-133941], the “% Control luminiscence” value in data set [1] was 100%. The IC50 in data set [2] (setting [6]) is 0.153 µM; in data set [3] (setting [7]), 0.51 µM. For the same compound, in data set [3], the “Ratio IC50 HepG2/IC50 P. falciparum” value is listed as 6.67. Further, in data set [4], the IC50 at 48 h turned out to be 3.4 µM.
On to `CCc1ccc(CN2CCC(CNC(=O)c3cc(-c4cccc(F)c4)cs3)C2)cc1` (stereo not drawn) [TCMDC-134432], for which the “% Control luminiscence” value in data set [1] is given as 100%. Besides, the IC50 is 1.36 µM in data set [2] (setting [6]), 1.26 µM in data set [3] (setting [7]) and 1.26 µM in data set [3] (setting [9]). Besides, the “Ratio IC50 HepG2/IC50 P. falciparum” value in data set [3] stood at 6. Moreover, the IC50 at 48 h in data set [4] was 7.22 µM.
Consider `COc1ccc(-c2cnc3[nH]cc(-c4ccncc4)c3c2)cc1OC` [TCMDC-135853], for which the “% Control luminiscence” value in data set [1] is recorded as 92%. Further, the IC50 in data set [2] (setting [6]) was 0.126 µM; in data set [3] (setting [7]), 0.9 µM; in data set [3] (setting [9]) it was 0.897 µM. In data set [3], the “Ratio IC50 HepG2/IC50 P. falciparum” value is 3.46. For the same compound, in data set [4], the IC50 at 48 h was found to be 3.1 µM.
For the compound `FC(F)c1nc2ccccc2n1-c1nc(N2CCOCC2)nc(N2CCOCC2)n1` [TCMDC-137004], in data set [1], the “% Control luminiscence” value is recorded as 98%. The IC50 in data set [2] (setting [6]) was 0.761 µM; in data set [3] (setting [7]), 5.44 µM; in data set [3] (setting [9]), 5.44 µM. The “Ratio IC50 HepG2/IC50 P. falciparum” value in data set [3] is reported as 0.291. Also, the IC50 at 48 h in data set [4] is 1.58 µM.
On to `N=C(NCC1CC1c1ccccc1)c1cccc(C(=N)NCC2CC2c2ccccc2)n1` (stereo not drawn) [TCMDC-137456], for which the “% Control luminiscence” value in data set [1] is 100%. Further, the values for the IC50 in data set [2] (setting [6]) and in data set [3] (setting [7]) were 1.76 µM and 0.45 µM, respectively. The “Ratio IC50 HepG2/IC50 P. falciparum” value in data set [3] worked out at 15. The IC50 at 48 h in data set [4] was determined as 6.8 µM.
On to `CN1CCN(CCCCNc2c3ccccc3nc3ccccc23)CC1` [TCMDC-137479], for which, in data set [1], the “% Control luminiscence” value was 100%. Also, the IC50 in data set [2] (setting [6]) was 0.704 µM; in data set [3] (setting [7]), 1.32 µM; in data set [3] (setting [9]) it was 1.32 µM. The “Ratio IC50 HepG2/IC50 P. falciparum” value in data set [3] was 2.57. In addition, the IC50 at 48 h in data set [4] was found to be 3.39 µM.
For `COc1ccc2nc(-c3ccccc3)cc(NCCCNc3cc(-c4ccccc4)nc4ccc(OC)cc34)c2c1.Cl` [TCMDC-137734], the “% Control luminiscence” value in data set [1] was 100%. Further, the IC50 in data set [2] (setting [6]) was 0.122 µM; in data set [3] (setting [7]), 1.21 µM; in data set [3] (setting [9]), 1.21 µM. The “Ratio IC50 HepG2/IC50 P. falciparum” value in data set [3] is given as 4.53. Also, in data set [4], the IC50 at 48 h is 5.5 µM.
On to `COc1cc2nc(N3CCN(C(=O)c4c(Cl)nsc4-c4ccccc4Cl)CC3)nc(N)c2cc1OC.O=C(O)C(F)(F)F` [TCMDC-138186], for which the “% Control luminiscence” value in data set [1] is given as 100%. In addition, the results for the IC50 in data set [2] (setting [6]), in data set [3] (setting [7]) and in data set [3] (setting [9]) were 0.534 µM, 0.22 µM and 0.215 µM, respectively. In addition, the “Ratio IC50 HepG2/IC50 P. falciparum” value in data set [3] is given as 38. The IC50 at 48 h in data set [4] came out at 8.18 µM.
On to `COc1cc2nc(N3CCC(CNC(=O)c4ccc(-c5ccc(-c6noc(C)n6)cc5)cc4)CC3)nc(N)c2cc1OC` [TCMDC-138754], for which the “% Control luminiscence” value in data set [1] is 97%. Besides, the figures for the IC50 in data set [2] (setting [6]) and in data set [3] (setting [7]) were 0.139 µM and 0.11 µM, respectively. Further, in data set [3], the “Ratio IC50 HepG2/IC50 P. falciparum” value was determined as 39. For the same compound, the IC50 at 48 h in data set [4] stood at 4.33 µM.
As to `COc1cc2nc(N3CCC(CNCc4ccc(-c5ccc(C(F)(F)F)cc5)cc4)CC3)nc(N)c2cc1OC` [TCMDC-138757], the “% Control luminiscence” value in data set [1] amounted to 100%. Besides, the IC50 was 0.087 µM in data set [2] (setting [6]), 0.0177 µM in data set [3] (setting [7]) and 0.018 µM in data set [3] (setting [9]). Besides, the “Ratio IC50 HepG2/IC50 P. falciparum” value in data set [3] is recorded as under 88. In addition, the IC50 at 48 h in data set [4] is under 1.56 µM.
In the case of `CC(C)CCNC(=O)c1cnc2c(O)cccc2c1Nc1cccc(NC(=O)c2ccc(F)cc2)c1.O=C(O)C(F)(F)F` [TCMDC-139606], in data set [1], the “% Control luminiscence” value is listed as 98%. The IC50 was 0.913 µM in data set [2] (setting [6]) and 1.27 µM in data set [3] (setting [7]). Also, the “Ratio IC50 HepG2/IC50 P. falciparum” value in data set [3] worked out at 4. In addition, in data set [4], the IC50 at 48 h amounted to 5.27 µM.
Regarding `COc1ccc(CNC(=O)c2cnc3c(O)cccc3c2Nc2cccc(NC(=O)c3ccc(Cl)c(Cl)c3)c2)cc1.O=C(O)C(F)(F)F` [TCMDC-139607], the “% Control luminiscence” value in data set [1] is 100%. Moreover, the IC50 in data set [2] (setting [6]) was 0.604 µM; in data set [3] (setting [7]) it was 0.68 µM. Besides, the “Ratio IC50 HepG2/IC50 P. falciparum” value in data set [3] is under 2.3. Moreover, the IC50 at 48 h in data set [4] is under 1.56 µM.
Turning to `COc1cc(NCC(C)CNCc2cn(Cc3ccccc3)c3ccccc23)nc2ccccc12` (stereo not drawn) [TCMDC-140496], the “% Control luminiscence” value in data set [1] came to 100%. In addition, the values for the IC50 in data set [2] (setting [6]) and in data set [3] (setting [7]) were 0.633 µM and 1.71 µM, respectively. The “Ratio IC50 HepG2/IC50 P. falciparum” value in data set [3] is listed as 3. Moreover, the IC50 at 48 h in data set [4] turned out to be 5 µM.
